{"source": "paper PMC4306510", "about": "(Bioconjugate Chemistry, 2014)", "origin": "cited, not measured here", "settings": "in 0.1 M aqueous NaOH"}
{"smiles": "O=C(O)c1ccc2c(c1)C(=O)OC21c2ccc(O)cc2Oc2cc(O)ccc21", "note": "[5-carboxy fluorescein]", "values": [{"measurement": "quantum yield of the standard", "result": 95, "unit": "%"}]}
